Earlier results in patent US20050065132A1, “2-alkylidene-19-nor-vitamin D derivatives for the treatment or prevention of a secon hip fracture” (Pfizer Inc, priority 2003, published 2005).
Read-outs that look alike come from different tables or passages of the source.

Key:
[1] = test system: intestinal calcium transport
[2] = test system: serum calcium (bone calcium mobilization); details: given for 7 days in a chronic mode, 130 and 260 pmol/day
[3] = 130 or 260 pmol dose, chronic 7 days

| SMILES | change in intestinal calcium transport [1, 3] | bone calcium mobilization [2] | change in intestinal calcium transport ([1]; 260 pmol/day, only dose tested) |
| --- | --- | --- | --- |
| C=C1[C@H](O)CC(=C/C=C2\CCC[C@]3(C)[C@@H]([C@@H](C)CCCC(C)(C)O)CC[C@@H]23)C[C@H]1O [2-Methylene-19-Nor-20S-1,25-(OH)2D3, (20S)-1α,25-dihydroxy-2-methylene-19-nor-vitamin D3] | no significant change | most potent compound tested | – |
| C=C1[C@H](O)CC(=C/C=C2\CCC[C@]3(C)[C@@H]([C@H](C)CCCC(C)(C)O)CC[C@@H]23)C[C@H]1O [2-Methylene-19-Nor-1,25-(OH)2D3, 1α,25-dihydroxy-2-methylene-19-nor-vitamin D3] | no intestinal calcium transport activity | extremely strong | – |
| C=C1/C(=C\C=C2/CCC[C@]3(C)[C@@H]([C@H](C)CCCC(C)(C)O)CC[C@@H]23)C[C@@H](O)C[C@@H]1O [1,25-(OH)2D3, 1,25-dihydroxyvitamin D3, reference compound] | – | – | expected elevation |
